In patent US20120010205A1, “NOVEL QUINOLINE ESTERS USEFUL FOR TREATING SKIN DISORDERS” (Wyeth LLC, priority 2010, published 2012):

Assays:
ABCG1 [1] = assay: Gene regulation by LXR: ABCG1, human foreskin fibroblasts (serum-free); type: cell-based; details: Fibroblast
ABCG1 [2] = assay: Gene regulation by LXR: ABCG1, KERTr (serum-free); type: cell-based
human LXRβ = target: T1, human LXRβ (Homo sapiens, UniProt P55055); assay: Ligand-binding test procedure for human LXRβ (3H T0901317 tracer, flash plates); details: read-out: hLXRb binding IC50
T1 construct: made in house; host or cells: E. coli
T1 sequence (P55055 1-460): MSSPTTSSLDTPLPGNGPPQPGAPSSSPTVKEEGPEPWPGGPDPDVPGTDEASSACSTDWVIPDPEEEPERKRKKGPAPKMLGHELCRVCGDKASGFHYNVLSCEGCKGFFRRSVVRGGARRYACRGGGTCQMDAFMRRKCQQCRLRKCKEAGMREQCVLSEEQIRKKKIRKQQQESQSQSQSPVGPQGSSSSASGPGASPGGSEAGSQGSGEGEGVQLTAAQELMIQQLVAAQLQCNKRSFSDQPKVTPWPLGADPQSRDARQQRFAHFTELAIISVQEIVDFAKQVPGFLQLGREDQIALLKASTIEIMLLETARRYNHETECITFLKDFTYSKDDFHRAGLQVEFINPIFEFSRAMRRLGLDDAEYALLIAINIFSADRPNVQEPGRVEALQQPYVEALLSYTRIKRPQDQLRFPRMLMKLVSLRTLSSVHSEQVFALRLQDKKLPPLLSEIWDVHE
Experimental: LIGAND-BINDING TEST PROCEDURE FOR HUMAN LXRβ.
Buffer: 100 mM KCl, 100 mM TRIS (pH 7.4 at +4° C.), 8.6% glycerol, 0.1 mM PMSF*, 2 mM MTG*, 0.2% CHAPS (* not used in wash buffer)
Receptor source: E. coli extracted from cells expressing biotinylated hLXRβ. Extract was made in a similar buffer as above, but with 50 mM TRIS.
Washed streptavidin and coated flash plates with wash buffer. Diluted receptor extract to give Bmax˜4000 cpm and add to the wells. Wrapped the plates in aluminum foil and stored them at +4° C. overnight.
Made a dilution series in DMSO of the test ligands. Made a 5 nM solution of the radioactive tracer in buffer. Mixed 250 μL diluted tracer with 5 μL of the test ligand from each concentration of the dilution series. Washed the receptor-coated flash plates. Added 200 μL per well of the ligand/radiolabel mixture to the receptor-coated flash plates. Wrapped the plates in aluminum foil and incubate at +4° C. over night.
Aspirated wells, and washed the flashed plates. Sealed the plate. Measured the remaining radioactivity in the plate.

hLXRa = target: T2, hLXRa (Homo sapiens, UniProt Q13133); assay: hLXRa binding
T2 sequence (Q13133 1-447): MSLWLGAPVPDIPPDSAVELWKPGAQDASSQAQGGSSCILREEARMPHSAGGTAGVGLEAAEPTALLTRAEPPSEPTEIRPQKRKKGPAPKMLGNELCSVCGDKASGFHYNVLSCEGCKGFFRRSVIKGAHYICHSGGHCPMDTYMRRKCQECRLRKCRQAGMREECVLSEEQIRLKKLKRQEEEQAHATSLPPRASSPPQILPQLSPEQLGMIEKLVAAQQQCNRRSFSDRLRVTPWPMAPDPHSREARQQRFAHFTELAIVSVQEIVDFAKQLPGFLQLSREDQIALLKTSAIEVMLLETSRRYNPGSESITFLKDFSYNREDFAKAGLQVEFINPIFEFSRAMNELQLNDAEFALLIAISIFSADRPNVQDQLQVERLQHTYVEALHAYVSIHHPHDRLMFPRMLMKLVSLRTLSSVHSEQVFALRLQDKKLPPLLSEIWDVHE

SMILES | EC50 (ABCG1 [1]) [nM] | EC50 (ABCG1 [2]) [nM] | IC50 (human LXRβ) [nM] | IC50 (hLXRa) [nM]
CCS(=O)(=O)c1cccc(C(=O)Oc2cccc(-c3c(C(C)C)cnc4c(Cl)cccc34)c2)c1 [Example 1, 3-(8-chloro-3-isopromilquinolin-4-yl)phenyl 3-(ethylsulfonyl)benzoate] | 59 | 0.76 | 3.7 | 16.2
Cc1ccc(S(C)(=O)=O)cc1C(=O)Oc1cccc(-c2c(C(C)C)cnc3c(Cl)cccc23)c1 [Example 2, 3-(8-chloro-3-isopropyiquinolin-4-yl)phenyl 2-methyl-5-(methylsulfonyl)benzoate] | 33 | 1.46 | 3.7 | 11.7
CC(C)c1cnc2c(Cl)cccc2c1-c1cccc(OC(=O)c2ccc(S(C)(=O)=O)cc2)c1 [Example 3, 3-(8-chloro-3-isopropylquinolin-4-yl)phenyl 4-(methylsulfonyl)benzoate] | 45 | 1.18 | 17 | 57
CC(C)c1cnc2c(Cl)cccc2c1-c1cccc(OC(=O)c2ccccc2S(C)(=O)=O)c1 [Example 4, 3-(8-chloro-3-isopropylquinolin-4-yl)phenyl 2-(methylsulfonyl)benzoate] | – | – | > 1000 | > 1000
Cc1ccc(S(=O)(=O)N(C)C)cc1C(=O)Oc1cccc(-c2c(C(C)C)cnc3c(Cl)cccc23)c1 [Example 5] | 50 | 1.62 | 25 | 53
CCS(=O)(=O)c1cccc(C(=O)Oc2cccc(-c3c(C(C)C)cnc4c(C(F)(F)F)cccc34)c2)c1 [Example 6, 3-[3-isopropyl-8-(trifluoromethyl)quinolin-4-yl]phenyl-3-(ethylsulfonyl)benzoate] | 37 | 1.48 | 4 | 16.3
Cc1ccc(S(C)(=O)=O)cc1C(=O)Oc1cccc(-c2c(C(C)C)cnc3c(C(F)(F)F)cccc23)c1 [Example 7, 3-[3-isopropyl-8-(trifluoromethyl)quinolin-4-yl]phenyl-2-methyl-5-(methylsulfonyl)benzoate] | 23 | 3.34 | 3 | 9.2
CC(C)c1cnc2c(C(F)(F)F)cccc2c1-c1cccc(OC(=O)c2ccc(S(C)(=O)=O)cc2)c1 [Example 8, 3-[3-isopropyl-8-(trifluoromethyl)quinolin-4-yl]phenyl 4-(methylsulfonyl)benzoate] | 38 | 1.9 | 12.5 | 54
CC(C)c1cnc2c(C(F)(F)F)cccc2c1-c1cccc(OC(=O)c2ccccc2S(C)(=O)=O)c1 [Example 9, 3-[3-isopropyl-8-(trifluoromethyl)quinolin-4-yl]phenyl 2-(methylsulfonyl)benzoate] | – | – | 112 | 256
Cc1ccc(S(=O)(=O)N(C)C)cc1C(=O)Oc1cccc(-c2c(C(C)C)cnc3c(C(F)(F)F)cccc23)c1 [Example 10] | 58 | 0.53 | 24 | 64
Cc1cnc2c(C(F)(F)F)cccc2c1-c1cccc(OC(=O)c2cccc(S(C)(=O)=O)c2)c1 [Example 11] | 105 | 73 | 3.5 | 13.3
Cc1cnc2c(C(F)(F)F)cccc2c1-c1cccc(C(=O)Oc2cccc(S(C)(=O)=O)c2)c1 [Example 12] | – | – | 154 | 544
CC(C)c1cnc2c(Cl)cccc2c1-c1cccc(OC(=O)c2cc(S(C)(=O)=O)ccc2Cl)c1 [Example 13, 3-(8-chloro-3-isopropylquinolin-4-yl)phenyl 2-chloro-5-(methylsulfonyl)benzoate] | – | – | 3.4 | 9
CC(C)c1cnc2c(C(F)(F)F)cccc2c1-c1cccc(OC(=O)c2cc(S(C)(=O)=O)ccc2Cl)c1 [Example 14, 3-[3-isopropyl-8-(trifluoromethyl)quinolin-4-yl]phenyl-2-chloro-5-(methylsulfonyl)benzoate] | – | – | 4.1 | 17
CC(C)c1cnc2c(C(F)(F)F)cccc2c1-c1cccc(OC(=O)c2cccc(S(C)(=O)=O)c2)c1 [Example 15, 3-[3-isopropyl-8-(trifluoromethyl)quinolin-4-yl]phenyl 3-(methylsulfonyl)benzoate] | 41 | 5.2 | 1.7 | 3.5
CC(C)c1cnc2c(Cl)cccc2c1-c1cccc(OC(=O)c2cccc(S(C)(=O)=O)c2)c1 [Example 16, 3-[8-chloro-3-(1-methylethyl)quinolin-4-yl]phenyl 3-(methylsulfonyl)benzoate] | – | – | 2.2 | 4.4
Cc1cnc2c(Cl)cccc2c1-c1cccc(OC(=O)c2cccc(S(C)(=O)=O)c2)c1 [Example 17, 3-(8-chloro-3-methylquinolin-4-yl)phenyl 3-(methylsulfonyl) benzoate] | – | – | 3.7 | 17
CS(=O)(=O)c1cccc(C(=O)Oc2ccc(Cl)c(-c3ccnc4c(C(F)(F)F)cccc34)c2)c1 [Example 18, 4-chloro-3-[8-(trifluoromethyl)quinolin-4-yl]phenyl-3-(methylsulfonyl)benzoate] | – | – | 13.8 | 122
CCc1cnc2c(C(F)(F)F)cccc2c1-c1cccc(OC(=O)c2cccc(S(C)(=O)=O)c2)c1 [Example 19, 3-[3-ethyl-8-(trifluoromethyl)quinolin-4-yl]phenyl 3-(methylsulfonyl)benzoate] | 36 | 12.5 | 2.2 | 4
CCCc1cnc2c(C(F)(F)F)cccc2c1-c1cccc(OC(=O)c2cccc(S(C)(=O)=O)c2)c1 [Example 20, 3-[3-propyl-8-(trifluoromethyl)quinolin-4-yl]phenyl 3-(methylsulfonyl)benzoate] | 11 | 4.49 | 2 | 2.9
CS(=O)(=O)c1cccc(C(=O)Oc2cccc(-c3ccnc4c(C(F)(F)F)cccc34)c2)c1 [Example 21, 3-[8-(trifluoromethyl)quinolin-4-yl]phenyl 3-(methylsulfonyl)benzoate] | 634 | 384 | 20 | 120
CS(=O)(=O)c1cccc(C(=O)Oc2cccc(-c3c(-c4ccccc4)cnc4c(C(F)(F)F)cccc34)c2)c1 [Example 22, 3-[3-phenyl-8-(trifluoromethyl)quinolin-4-yl]phenyl 3-(methylsulfonyl)benzoate] | 9.9 | 9.15 | 2.3 | 3.9
CS(=O)(=O)c1cccc(C(=O)Oc2cccc(-c3c(Cc4ccccc4)cnc4c(C(F)(F)F)cccc34)c2)c1 [Example 23, 3-[3-benzyl-8-(trifluoromethyl)quinolin-4-yl]phenyl 3-(methylsulfonyl)benzoate] | 16 | 25 | 2.7 | 5.8
CS(=O)(=O)c1cccc(C(=O)Oc2cccc(-c3c(C#N)cnc4c(C(F)(F)F)cccc34)c2)c1 [Example 24, 3-[3-cyano-8-(trifluoromethyl)quinolin-4-yl]phenyl 3-(methylsulfonyl)benzoate] | – | – | 33 | 90
Cc1cnc2c(C(F)(F)F)cccc2c1-c1cccc(OC(=O)c2cccc(S(=O)(=O)N(C)C)c2)c1 [Example 25, 3-[3-methyl-8-(trifluoromethyl)quinolin-4-yl]phenyl 3-(dimethylsulfamoyl)benzoate] | 250 | 42 | 14 | 58
CCS(=O)(=O)c1cccc(C(=O)Oc2cccc(-c3c(C)cnc4c(C(F)(F)F)cccc34)c2)c1 [Example 26] | 250 | 250 | 8.6 | 52
